US10294234B2, “HIV inhibitor compounds” (priority 2017, dated 2019)

Tests used:
[1] = microsomes
How it was run: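 Depletion measured by LC/MS/MS at 2, 12, 25, 45 and 65 minutes after 1 uM compound was added to liver microsomes (0.5 mg/mL; dog, rat, human) with NADPH-regenerating cofactor, in duplicate. In vitro t1/2 converted to Clint.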

[2] = tested on: HIV-1 (IIIB) in MT-4 cells; test: MT-4 HIV assay; type: cell-based; details: Human immunodeficiency virus 1, MT4, 120 h; HIV-1 (IIIB), MT-4 cells, 5 days, Cell Titer Glo; read-out: EC50
How it was run: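 Antiviral activity was read by Cell Titer Glo after a 5-day, 37 °C culture of MT-4 cells pre-infected with a 1:250 dilution of HIV-1 (IIIB). Compounds were tested as threefold dilution series in complete RPMI. Controls were no drug, mock infection and 5 uM AZT.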

in vivo = details: rat, in vivo; for Vd / RAT PO F: male, SD; for Vd / RAT IV CL / RAT IV T1/2: iv; for RAT PO F: 2.5 mg/kg
Procedure: Each dosing group consisted of 3 male naïve SD Rats. At dosing, the animals weighed between 0.27 to 0.32 kg. The animals were fasted overnight prior to dose administration. The test article was administered by intravenous infusion over 30 min. The rate of infusion was adjusted according to the body weight of each animal to deliver a dose of 0.5 or 1.0 mg/kg. For the oral dosing group, the test article was administered to animals by oral gavage administration. Serial venous blood samples (approximately 0.30 mL each) were taken at predose and 0.25, 0.48, 0.58, 0.75, 1.5, 3, 6, 8, 12 and 24 hours post dose for the IV dosing group animals. Blood samples were taken at predose, 0.25, 0.50, 1, 2, 4, 6, 8, 12 and 24 hours post dose for the oral group animals. The blood samples were collected into Vacutainer™ tubes containing EDTA-K2 as the anti-coagulant and were immediately placed on wet ice pending centrifugation for plasma. An LC/MS/MS method was used to measure the concentration of test compound in plasma. Non-compartmental pharmacokinetic analysis was performed on the plasma concentration-time data.

Row | Structure (SMILES) | Dog. Pred. Cl. [1] [L/H/kg] | Human Pred Cl. [1] [L/H/kg] | Rat. Pred. Cl. [1] [L/H/kg] | EC50 [2] [nM] | Vd (in vivo) [L/kg] | RAT PO F (in vivo) [%] | RAT IV CL (in vivo) [mL/min/kg] | RAT IV T1/2 (in vivo) [h]
1 | COC(=O)N[C@H](C(=O)N[C@@H](Cc1ccc(C#Cc2ccc(N3CC4CCC(C3)N4C3COC3)nc2)cc1)[C@@H](O)CN(Cc1c(F)cc(-c2ccccn2)cc1Cl)NC(=O)[C@@H](NC(=O)OC)C(C)(C)C(F)(F)F)C(C)(C)C(F)(F)F [Example 74, Methyl ((5S,8S,9S,14S)-11-(2-chloro-6-fluoro-4-(pyridin-2-yl)benzyl)-16,16,16-trifluoro-9-hydroxy-15,15-dimethyl-8-(4-((6-(8-(oxetan-3-yl)-3,8-diazabicyclo[3.2.1]octan-3-yl)pyridin-3-yl)ethynyl)benzyl)-3,6,13-trioxo-5-(1,1,1-trifluoro-2-methylpropan-2-yl)-2-oxa-4,7,11,12-tetraazahexadecan-14-yl)carbamate] | 1.53 | 0.17 | 0.2 | 6.79 | 5.07 | 35.8 | 6.5 | 11.6
2 | COC(=O)N[C@H](C(=O)N[C@@H](Cc1ccc(C#Cc2ccc(N3CC4CCC(C3)N4C3COC3)nc2)cc1)[C@@H](O)CN(Cc1c(F)cc(-c2cn(C(F)F)cn2)cc1F)NC(=O)[C@@H](NC(=O)OC)C(C)(C)C(F)(F)F)C(C)(C)C(F)(F)F [Example 79, Methyl ((5S,8S,9S,14S)-11-(4-(1-(difluoromethyl)-1H-imidazol-4-yl)-2,6-difluorobenzyl)-16,16,16-trifluoro-9-hydroxy-15,15-dimethyl-8-(4-((6-(8-(oxetan-3-yl)-3,8-diazabicyclo[3.2.1]octan-3-yl)pyridin-3-yl)ethynyl)benzyl)-3,6,13-trioxo-5-(1,1,1-trifluoro-2-methylpropan-2-yl)-2-oxa-4,7,11,12-tetraazahexadecan-14-yl)carbamate] | – | <0.11 | <0.18 | 3.53 | 4.07 | 13.1 | 12.8 | 5.13
3 | COC(=O)N[C@H](C(=O)N[C@@H](Cc1ccc(C#Cc2ccc(N3CC4CCC(C3)N4C3COC3)nc2)cc1)[C@@H](O)CN(Cc1c(F)cc(-c2ccccn2)cc1F)NC(=O)[C@@H](NC(=O)OC)C(C)(C)C(F)(F)F)C(C)(C)C(F)(F)F [Example 130, Methyl ((5S,8S,9S,14S)-11-(2,6-difluoro-4-(pyridin-2-yl)benzyl)-16,16,16-trifluoro-9-hydroxy-15,15-dimethyl-8-(4-((6-(8-(oxetan-3-yl)-3,8-diazabicyclo 3.2.1 octan-3-yl)pyridin-3-yl)ethynyl)benzyl)-3,6,13-trioxo-5-(1,1,1-trifluoro-2-methylpropan-2-yl)-2-oxa-4,7,11,12-tetraazahexadecan-14-yl)carbamate] | – | 0.32 | <0.18 | 3.41 | 5.27 | 55.7 | 6.5 | 11.5
4 | COC(=O)N[C@H](C(=O)N[C@@H](Cc1ccc(C#Cc2ccc(N3CC4COCC(C3)N4C3COC3)nc2)cc1)[C@@H](O)CN(Cc1c(F)cc(-c2ccn(C(F)F)n2)cc1F)NC(=O)[C@@H](NC(=O)OC)C(C)(C)C(F)(F)F)C(C)(C)C(F)(F)F [Example 180, Methyl ((5S,8S,9S,14S)-11-(4-(1-(difluoromethyl)-1H-pyrazol-3-yl)-2,6-difluorobenzyl)-16,16,16-trifluoro-9-hydroxy-15,15-dimethyl-8-(4-((6-(9-(oxetan-3-yl)-3-oxa-7,9-diazabicyclo[3.3.1]nonan-7-yl)pyridin-3-yl)ethynyl)benzyl)-3,6,13-trioxo-5-(1,1,1-trifluoro-2-methylpropan-2-yl)-2-oxa-4,7,11,12-tetraazahexadecan-14-yl)carbamate] | – | <0.11 | <0.18 | 3.69 | 0.52 | 4.29 | 6.5 | 2.81
5 | COC(=O)N[C@H](C(=O)NN(Cc1c(F)cc(-c2ccn(C(F)F)n2)cc1F)C[C@H](O)[C@H](Cc1ccc(C#Cc2cnc(N3CC4CCC(C3)N4C3COC3)nc2)cc1)NC(=O)[C@@H](NC(=O)C1CC1)C(C)(C)C(F)(F)F)C(C)(C)C(F)(F)F [Example 221, Methyl ((2S)-1-(2-((2S,3S)-3-((S)-2-(cyclopropanecarboxamido)-4,4,4-trifluoro-3,3-dimethylbutanamido)-2-hydroxy-4-(4-((2-(8-(oxetan-3-yl)-3,8-diazabicyclo[3.2.1]octan-3-yl)pyrimidin-5-yl)ethynyl)phenyl)butyl)-2-(4-(1-(difluoromethyl)-1H-pyrazol-3-yl)-2,6-difluorobenzyl)hydrazinyl)-4,4,4-trifluoro-3,3-dimethyl-1-oxobutan-2-yl)carbamate] | 0.14 | <0.11 | 0.28 | 4.49 | 4.41 | 19.9 | 5.33 | 11.5
